As usually defined, the Ki is the dissociation constant of the complex between target and ligand, obtained from inhibition or displacement.

SMILES strings stand for the structures.

These results are taken from ChEMBL document CHEMBL1129300, “Conformationally constrained analogues of diacylglycerol. 12. Ultrapotent protein kinase C ligands based on a chiral 4,4-disubstituted heptono-1,4-lactone template” (J Med Chem, 1996).

For this experiment, the target named is Protein kinase C alpha type (Homo sapiens, UniProt P17252). The experiment in a line: Displacement of [3H-20]-PDBU from recombinant Protein kinase C alpha. On the technique in general: Loss of bound radioactivity is the signal in a displacement assay; it reports binding, not function.
`CCCCCCCC/C=C\CCCCCCCC/C=C1\C[C@](/C=C/C(=O)OC)(CO)OC1=O`: the inhibition constant Ki was determined as 20 nM.
`CCCCCCCC/C=C\CCCCCCCC/C=C1/C[C@](/C=C/C(=O)OC)(CO)OC1=O`: the Ki came to 11 nM.
As for `CCCCCCCC/C=C\CCCCCCCC/C=C1\C[C@@](CO)(COC(C)=O)OC1=O`, the figure is 13 nM.
The result for `CCCCCCCC/C=C\CCCCCCCC/C=C1/C[C@@](CO)(COC(C)=O)OC1=O` reads 12 nM.
